Laboratory results published in PubChem BioAssay AID248 (DTP/NCI, 2004).
Inconclusive results and toxic doses are left out.

Test system: L1210 leukemia ip in BDF1 mice, survival T/C
Assay: NCI In Vivo Anticancer Drug Screen. Data for tumor model L1210 Leukemia (intraperitoneal) in B6D2F1 (BDF1) mice
Conditions: endpoint: mean survival time, higher = longer survival
Method in brief: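 Read-out is survival time, reported as the treated-group measurement over the vehicle-control measurement.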

[1] = dose: 75.0 mg/kg/injection, schedule: Q01DX001 (ip), vehicle: saline
[2] = dose: 100.0 mg/kg/injection, schedule: Q01DX009 (ip), vehicle: carboxymethylcellulose (CMC)
[3] = dose: 150.0 mg/kg/injection, schedule: Q01DX001 (ip), vehicle: saline
[4] = dose: 200.0 mg/kg/injection, schedule: Q01DX009 (ip), vehicle: carboxymethylcellulose (CMC)
[5] = dose: 300.0 mg/kg/injection, schedule: Q01DX001 (ip), vehicle: saline
[6] = dose: 50.0 mg/kg/injection, schedule: Q01DX009 (ip), vehicle: Klucel (hydroxypropylcellulose) (HPC)
[7] = dose: 100.0 mg/kg/injection, schedule: Q01DX009 (ip), vehicle: Klucel (hydroxypropylcellulose) (HPC)
[8] = dose: 200.0 mg/kg/injection, schedule: Q01DX009 (ip), vehicle: Klucel (hydroxypropylcellulose) (HPC)
[9] = dose: 100.0 mg/kg/injection, schedule: Q01DX001 (ip), vehicle: Klucel (hydroxypropylcellulose) (HPC)
[10] = dose: 200.0 mg/kg/injection, schedule: Q01DX001 (ip), vehicle: Klucel (hydroxypropylcellulose) (HPC)
[11] = dose: 400.0 mg/kg/injection, schedule: Q01DX001 (ip), vehicle: Klucel (hydroxypropylcellulose) (HPC)
[12] = dose: 100.0 mg/kg/injection, schedule: Q01DX001 (ip), vehicle: saline
[13] = dose: 100.0 mg/kg/injection, schedule: Q04DX003 (ip), vehicle: saline
[14] = dose: 200.0 mg/kg/injection, schedule: Q01DX001 (ip), vehicle: saline
[15] = dose: 200.0 mg/kg/injection, schedule: Q04DX003 (ip), vehicle: saline
[16] = dose: 100.0 mg/kg/injection, schedule: Q04DX002 (ip), vehicle: saline with Tween-80
[17] = dose: 200.0 mg/kg/injection, schedule: Q04DX002 (ip), vehicle: saline with Tween-80
[18] = dose: 400.0 mg/kg/injection, schedule: Q04DX002 (ip), vehicle: saline with Tween-80

CC(=O)Oc1ccc[nH]c1=O
T/C [1]: 103 % of control
T/C (dose: 75.0 mg/kg/injection, schedule: Q04DX003 (ip), vehicle: saline): 103 % of control
T/C (dose: 100.0 mg/kg/injection, schedule: Q01DX001 (ip), vehicle: carboxymethylcellulose (CMC)): 100 % of control
T/C [2]: 98 % of control
T/C (dose: 100.0 mg/kg/injection, schedule: Q01DX009 (ip), vehicle: saline): 101 % of control
T/C (dose: 100.0 mg/kg/injection, schedule: Q01DX015 (ip), vehicle: saline): 102 % of control
T/C [3]: 102 % of control
T/C (dose: 150.0 mg/kg/injection, schedule: Q04DX003 (ip), vehicle: saline): 100 % of control
T/C (dose: 200.0 mg/kg/injection, schedule: Q01DX001 (ip), vehicle: carboxymethylcellulose (CMC)): 97 % of control
T/C [4]: 109 % of control
T/C (dose: 200.0 mg/kg/injection, schedule: Q01DX009 (ip), vehicle: saline): 114 % of control
T/C (dose: 200.0 mg/kg/injection, schedule: Q01DX015 (ip), vehicle: saline): 124 % of control
T/C [5]: 110 % of control
T/C (dose: 300.0 mg/kg/injection, schedule: Q04DX003 (ip), vehicle: saline): 113 % of control
T/C (dose: 400.0 mg/kg/injection, schedule: Q01DX001 (ip), vehicle: carboxymethylcellulose (CMC)): 103 % of control
T/C (dose: 400.0 mg/kg/injection, schedule: Q01DX009 (ip), vehicle: saline): 153 % of control
T/C (dose: 800.0 mg/kg/injection, schedule: Q01DX009 (ip), vehicle: carboxymethylcellulose (CMC)): 154 % of control
T/C (dose: 800.0 mg/kg/injection, schedule: Q01DX009 (ip), vehicle: saline): 88 % of control

CCOC(=O)c1ccc(N=Cc2ccccc2O)cc1
T/C [6]: 98 % of control
T/C (dose: 75.0 mg/kg/injection, schedule: Q01DX001 (ip), vehicle: Klucel (hydroxypropylcellulose) (HPC)): 88 % of control
T/C [7]: 89 % of control
T/C (dose: 150.0 mg/kg/injection, schedule: Q01DX001 (ip), vehicle: Klucel (hydroxypropylcellulose) (HPC)): 105 % of control
T/C [8]: 106 % of control
T/C (dose: 300.0 mg/kg/injection, schedule: Q01DX001 (ip), vehicle: Klucel (hydroxypropylcellulose) (HPC)): 88 % of control

CCCC(C(O)CC)[N+](=O)[O-] (stereo not drawn)
T/C [9]: 95 % of control
T/C [10]: 97 % of control
T/C [11]: 101 % of control

Cc1cc(C)c2nc(-c3ccc(F)cc3)cc(C(=O)O)c2c1
T/C (dose: 50.0 mg/kg/injection, schedule: Q04DX003 (ip), vehicle: saline): 97 % of control
T/C [12]: 101 % of control
T/C [13]: 97 % of control
T/C [14]: 93 % of control
T/C [15]: 96 % of control

CCOC(=O)C(Cc1ccc(Cl)c(Cl)c1)(Cc1ccc(Cl)c(Cl)c1)C(=O)OCC
T/C (dose: 100.0 mg/kg/injection, schedule: Q01DX009 (ip), vehicle: saline with Tween-80): 104 % of control
T/C (dose: 100.0 mg/kg/injection, schedule: Q04DX003 (ip), vehicle: saline with Tween-80): 88 % of control
T/C (dose: 200.0 mg/kg/injection, schedule: Q01DX009 (ip), vehicle: saline with Tween-80): 97 % of control
T/C (dose: 200.0 mg/kg/injection, schedule: Q04DX003 (ip), vehicle: saline with Tween-80): 89 % of control
T/C (dose: 400.0 mg/kg/injection, schedule: Q01DX009 (ip), vehicle: saline with Tween-80): 95 % of control
T/C (dose: 400.0 mg/kg/injection, schedule: Q04DX003 (ip), vehicle: saline with Tween-80): 105 % of control

CC(C)NC(=O)NC(C)C
T/C [9]: 100 % of control
T/C [10]: 96 % of control
T/C [11]: 94 % of control

O=C1c2cccc3cc([N+](=O)[O-])cc(c23)C(=O)N1C(Cc1ccccc1)c1ccccc1 (stereo not drawn)
T/C [16]: 103 % of control
T/C [17]: 95 % of control
T/C [18]: 103 % of control

CC[C@@]1(O)C(=O)OCc2c1cc1n(c2=O)Cc2cc3c(OC)cccc3nc2-1
T/C (dose: 0.25 mg/kg/injection, schedule: Q01DX009 (ip), vehicle: saline with Tween-80): 122 % of control
T/C (dose: 0.5 mg/kg/injection, schedule: Q01DX009 (ip), vehicle: carboxymethylcellulose (CMC)): 120 % of control
T/C (dose: 0.5 mg/kg/injection, schedule: Q01DX009 (ip), vehicle: saline with Tween-80): 122 % of control
T/C (dose: 1.0 mg/kg/injection, schedule: Q01DX009 (ip), vehicle: carboxymethylcellulose (CMC)): 107 % of control
T/C (dose: 1.0 mg/kg/injection, schedule: Q01DX009 (ip), vehicle: saline with Tween-80): 162 % of control
T/C (dose: 4.0 mg/kg/injection, schedule: Q01DX009 (ip), vehicle: carboxymethylcellulose (CMC)): 88 % of control
T/C (dose: 4.0 mg/kg/injection, schedule: Q04DX003 (ip), vehicle: saline with Tween-80): 173 % of control
T/C (dose: 8.0 mg/kg/injection, schedule: Q04DX003 (ip), vehicle: saline with Tween-80): 215 % of control
T/C (dose: 12.5 mg/kg/injection, schedule: Q04DX003 (ip), vehicle: saline with Tween-80): 123 % of control
T/C (dose: 25.0 mg/kg/injection, schedule: Q04DX003 (ip), vehicle: saline with Tween-80): 96 % of control
T/C (dose: 50.0 mg/kg/injection, schedule: Q04DX003 (ip), vehicle: saline with Tween-80): 93 % of control

FC(F)(Cl)c1nc2nc(Cl)c(Cl)nc2[nH]1
T/C (dose: 50.0 mg/kg/injection, schedule: Q01DX009 (ip), vehicle: other): 96 % of control
T/C (dose: 100.0 mg/kg/injection, schedule: Q01DX009 (ip), vehicle: other): 122 % of control
T/C (dose: 100.0 mg/kg/injection, schedule: Q04DX003 (ip), vehicle: other): 114 % of control
T/C (dose: 200.0 mg/kg/injection, schedule: Q04DX003 (ip), vehicle: other): 123 % of control
T/C (dose: 400.0 mg/kg/injection, schedule: Q04DX003 (ip), vehicle: other): 96 % of control

COc1ccc(-c2nnc(Cl)o2)cc1
T/C [13]: 94 % of control

O=C(O)C(O)c1ccc([N+](=O)[O-])cc1 (stereo not drawn)
T/C [1]: 92 % of control
T/C [16]: 95 % of control
T/C [3]: 94 % of control
T/C [17]: 103 % of control
T/C [5]: 90 % of control
T/C [18]: 100 % of control

CC(=O)OC(C1C[C@@]2(C)[C@@H](CC[C@@H]3[C@@H]2CC[C@]2(C)[C@@H](OC(C)=O)CC[C@@H]32)CC1=O)C(F)(F)F (stereo partly drawn)
T/C (dose: 50.0 mg/kg/injection, schedule: Q01DX009 (ip), vehicle: carboxymethylcellulose (CMC)): 97 % of control
T/C [2]: 89 % of control
T/C [4]: 95 % of control

C[n+]1ccccc1C(=O)O
T/C [12]: 97 % of control
T/C [13]: 97 % of control
T/C [14]: 106 % of control
T/C [15]: 95 % of control
T/C (dose: 400.0 mg/kg/injection, schedule: Q01DX001 (ip), vehicle: saline): 101 % of control
T/C (dose: 400.0 mg/kg/injection, schedule: Q04DX003 (ip), vehicle: saline): 92 % of control

Oc1ccc(-c2nnc(-c3ccccc3)nn2)cc1
T/C (dose: 100.0 mg/kg/injection, schedule: Q04DX003 (ip), vehicle: gum acacia): 104 % of control
T/C (dose: 200.0 mg/kg/injection, schedule: Q04DX003 (ip), vehicle: gum acacia): 95 % of control
T/C (dose: 400.0 mg/kg/injection, schedule: Q04DX003 (ip), vehicle: gum acacia): 95 % of control

Cc1cc(C)c(Nc2n[nH]c(=S)s2)cc1C
T/C [16]: 87 % of control
T/C [17]: 92 % of control
T/C [18]: 94 % of control

Cc1cc(C(=O)O)c(C)n1-c1ccccc1C(=O)O
T/C [6]: 102 % of control
T/C [9]: 103 % of control
T/C [7]: 89 % of control
T/C [10]: 92 % of control
T/C [8]: 93 % of control
T/C [11]: 94 % of control
